Peptide text beside a SMILES is read from it. * marks the point of attachment. Cbz = O=C(OCc1ccccc1)*

Data set [1] concerns cardiomyocytic cell line derived from human ventricular heart tissue. As to the kind of experiment: Small molecule compound screen of gigasome production in cardiomyocytic monocultures.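 For all read-outs here: gigasomes shed into the culture medium were imaged by confocal microscopy and counted as round particles lacking nuclear signal, extrapolated to the whole well, fold change is relative to DMSO vehicle.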 Conditions: for Number of Gigasomes Produced: Table 22, cardiomyocytes, 24 hours.
Method: For the screening, a total of 100 randomly organized compounds (TargetMol) were divided in 5 groups. Each group included an untreated condition, a vehicular DMSO control, and a known high-gigasome producing condition to comparatively study gigasome production rates. As a cell death control group, 500 nM Staurosporine was added to induce apoptosis. Cultures were incubated for 24 hours under gigasome inducing conditions at concentrations ranging between 10 nM and 10,000 nM. […] The Zeiss ZEN Blue software was used to distribute imaging fields of view (positions) to create an unbiased imaging sample of a well. 5 images were taken using a Zeiss LSM 900 confocal microscope. […] The BioApps ZEN software package was used to perform cell nucleus segmentation and counting. After 24 hours, gigasomes were harvested from the cell culture media by gently removing from the top of each 96-well ⅔ of the total volume without disturbing the cell layer (containing the settled gigasomes) and by adding to each well the same amount of PBS containing 0.5 mM EDTA. The wells were washed twice gently, and the gigasome-containing media/0.5 mM EDTA PBS wash was transferred into the well of a 384-well glass bottom plate. Cells remaining in the 96-well plates were assessed for viability using CellTiter-Glo (Promega).
For gigasome analysis in 384-well plates, the Zeiss ZEN Blue software was used to distribute positions to create an unbiased imaging sample of a well. 6 images per well were taken using a Zeiss LSM 900 confocal microscope. […] A watershed binary segmentation step was performed to separate grouped objects. For each particle in the mask, characteristic parameters of the particle were calculated and saved. […] Particles of interest were identified by thresholding by area and circularity. […] Circularity, defined by the formula 4pi(area/perimeter^2, was set to be between 0.8, where a value of 1.0 is a perfect circle, and a value of 0 is a line. Gigasomes were identified from the particles of interest by thresholding by mean nuclear signal. The nuclear signal threshold was set using a value equal to one quarter of a threshold value calculated by the Li auto-threshold algorithm applied to the distribution of all particles of interest. Particles of interest with nuclear signal below this value were considered “negative” for nuclear material and were identified as gigasomes. A sampling factor was calculated to extrapolate the total quantity of a type of object (particles, particles of interest, gigasomes) in the well. The sampling factor was the percentage of the well's area that was imaged. […] In some experiments, the number of cells in the cell cultures were estimated with a cell counter. […] The normalized quantity or distribution of objects was described as a quantity or distribution of objects per 1000 cells.
In data set [2] the test system is neuronal cells. As to the kind of experiment: Live microscopy of neuronal gigasome generation. Conditions: 0.1 M MG-132; live time-lapse microscopy; compared to DMSO control. The class given is cell-based, human. As for the experimental part: Cells were stained with Hoechst 33342 to visualize nuclei and nuclear material, CellTracker Green to visualize cytoplasm, and MitoTracker Deep Red to visualize mitochondria. Gigasome production was then induced with various drugs as described in Example 1. Cell cultures were imaged every 15-30 minutes under a time lapse for up to 48 hours (FIGS. 1A and 1B). For image analysis, ImageJ and Zeiss ZEN Blue software was used. Gigasomes were identified and quantified as distinct circular/spherical vesicles in the extracellular space of the neurons, between 1-20 μm in diameter. Gigasomes were identified based on having positive neuronal cytoplasmic signal and negative Hoechst 33342 signal. The presence of mitochondria in gigasomes was measured via respective fluorescent signal.
Time-lapse montages were produced and edited to show the formation of gigasomes from parent neuronal cells after treatment with […] MG-132 (FIGS. 1A and 1B). Gigasomes and parent cells were identified and tracked throughout the duration of the time lapse. In some experiments, gigasomes produced by parent cells in MG-132 treatment groups were identified.

The subject of data set [3] is neuronal cells. Kind of data set: Gigasome-mediated extraction of APP-CTFs upon γ-secretase and proteasome inhibition (fixed plates, confocal). The class given is cell-based, human. The method, then:
Cells were treated with the γ-secretase inhibitor L-685,458 at 5 μM, either alone or in combination with the proteasome inhibitor MG-132 at 0.1 μM. A vehicular control amount of DMSO was added to the media to comparatively study cargo signals within cells and gigasomes. Treatments were carried out in reduced serum-containing media (3% FBS) for 24 hours. Disease-related cargo presence within cells and in gigasomes was characterized and quantified by confocal microscopy analysis of 4% paraformaldehyde fixed cells, following (immuno)fluorescent labeling of cytosolic, nuclear and cargo-specific protein markers. In some experiments β-III tubulin and Alexa Fluor® 488 phalloidin were used to mark the cytosol and proximal plasma membrane, respectively. To detect APP-CTFs, an antibody against the C-terminus of APP (C-APP) was used (see Table 12). Non-specific labeling was blocked by incubation with 5% normal goat serum in PBS in the presence of 0.05% saponin, for 1 h at room temperature. Primary antibodies were incubated overnight at 4° C., followed by incubation with Alexa Fluor®-conjugated secondary antibodies for 1 hour at room temperature. Nuclei were counterstained with DAPI.
A range of 5-8 images per well were taken from replicate experiments to capture a final total range of 150-200 cells. […] The cellular cargo fluorescence intensity in the red channel was quantified by subtracting the background signal from each image, using the ImageJ built-in “subtract background” function with a default rolling ball radius of 50 pixel. The cargo signal (integrated density) in the red channel was measured and normalized to the number of nuclei counted in each field. […]
For particle analysis, the cytosolic and F-actin/membrane signals were merged into single RGB image, converted to grayscale and then thresholded to create a cellular mask of objects in the field of view, as calculated by the “Li” autothreshold algorithm. […] The quantity or distribution of objects obtained from the particle analysis was divided by the number of cells counted in each field to obtain a normalized quantity or distribution.

Data set [4] concerns cardiomyocytic cell line derived from human ventricular heart tissue. As to the kind of experiment: Cell viability in cardiomyocyte compound screen (CellTiter-Glo). Format: cell-based. Conditions: human, 24 h. In general terms: In ATP-based viability assays light output follows the ATP content of the culture.
From the text: Cells were stained with Hoechst 34580, CellTracker Green/CellMask Green Actin and MitoTracker Deep Red to detect nuclear material, cytoplasm/F-actin, and mitochondria, respectively, and cultured in poly-L-lysine-coated 96-well glass bottom plates at 15,800 cells/cm^2 and allowed to adhere overnight. For the screening, a total of 100 randomly organized compounds (TargetMol) were divided in 5 groups. Each group included an untreated condition, a vehicular DMSO control, and a known high-gigasome producing condition to comparatively study gigasome production rates. As a cell death control group, 500 nM Staurosporine was added to induce apoptosis. Cultures were incubated for 24 hours under gigasome inducing conditions at concentrations ranging between 10 nM and 10,000 nM. […] Cells remaining in the 96-well plates were assessed for viability using CellTiter-Glo (Promega).
The test system of data set [5] is neuronal cells. As to the kind of experiment: Gigasome-mediated extraction of exogenously added Tau fibrils (live plated cells and culture media). The class given is cell-based, human. As for the experimental part: P301S mutant Tau fibrils conjugated to the fluorescent probe ATTO 488 (Table 12) were resuspended at 50 nM in reduced serum-containing media and added to half of the cell-containing wells for 3 hours at 37° C. Following Tau fibrils uptake, cells were trypsinized to remove excess Tau fibrils attached to the cell surface, labeled with Hoechst 33342 to visualize nuclei and CellTracker Orange to visualize the cytoplasm and plated in a new poly-L-lysine-coated 24-well glass bottom plates. Cells were allowed to attach (2-3 hours), before addition of 0.1 μM MG-132 in reduced serum-containing media for additional 18-20 h.
For analysis, 10-15×16-bit images per well were captured with a 20× objective and processed for analysis of gigasome production. Composite images were separated in the different channels. The background was subtracted from the green Tau fibrils cargo channel, as described Example 13.a and the signal thresholded using the “Yen” autothreshold algorithm. The cargo signal (integrated density) in the green channel was measured and normalized to the number of nuclei counted in each field in the Tau-F conditions. […] The quantity or distribution of objects obtained from the particle analysis was divided by the number of cells counted in each field to obtain a normalized quantity or distribution. […]

The subject of data set [6] is neuronal cell line derived from human neuroblastoma. Conditions: neuronal cells, dose 100 nM, 24 hours.
Method: For the screening, a total of 99 compounds (TargetMol) were divided in 5 groups. Each group included an untreated condition, a vehicular DMSO control, and a known high-gigasome producing condition to comparatively study gigasome production rates. As a cell death control group, 500 nM Staurosporine was added to induce apoptosis. Cultures were incubated for 24 hours under gigasome inducing conditions at concentrations ranging between 10 nM and 10,000 nM. Before the end of the treatment, live neuronal cultures were imaged. The Zeiss ZEN Blue software was used to distribute imaging fields of view (positions) to create an unbiased imaging sample of a well. 5 images were taken using a Zeiss LSM 900 confocal microscope. […] The BioApps ZEN software package was used to perform cell nucleus segmentation and counting. After 24 hours, gigasomes were harvested from the cell culture media by gently removing from the top of each 96-well ⅔ of the total volume without disturbing the cell layer (containing the settled gigasomes) and by adding to each well the same amount of PBS. […] Cells remaining in the 96-well plates were assessed for viability using CellTiter-Glo (Promega).
Data set [7] has the same test system. Kind of data set: Small molecule compound screen of gigasome production in neuronal monocultures.
Where [8] appears, read: Homo sapiens, Cardiomyocyte, 24 h, read-out: Fold Change of Gigasomes Produced vs. DMSO.

For the molecule `CC(C)C[C@@H](C=O)NC(=O)[C@H](CC(C)C)NC(=O)[C@H](CC(C)C)NC(=O)OCc1ccccc1` [MG-132, reference compound] (Cbz-Leu-Leu-Leu-aldehyde), the fold induction at 0.01 µM in data set [1] (setting [8]) lay within 1.5 to 1.75. For the same molecule, the fold induction at 0.1 µM in data set [1] (setting [8]) was over 4; in data set [7] (Homo sapiens, 24 h, read-out: Fold Change of Gigasomes Produced vs. DMSO) it was 1.5 to 1.75. Also, the “Number of Gigasomes Produced” value in data set [1] (dose 10 nM) is recorded as 150-175; in data set [1] (dose 100 nM) it was over 400; in data set [7] (neuronal cells, dose 100 nM, 24 hours), 55-65. Further, in the data set with neuronal cells [2], the gigasome production entry is “increase”. For the same molecule, the “C-APP+ve particle intensity distribution (gigasome diameter and brightness)” value with neuronal cells [3] (compared to γ-secretase inhibitor and DMSO conditions (FIG. 6D)) was “larger in diameter and brighter”. In addition, the “intracellular APP-CTF levels (C-APP immunoreactivity)” value in the data set on neuronal cells [3] (γ-secretase inhibitor 5 μM, MG-132 0.1 μM, alone or combined, 24 h, compared to DMSO) is reported as “does not increase”. Also, the Viability was 100% in data set [4] (10 nM), 50-75% in data set [4] (100 nM) and 50-75% in data set [6]. The “gigasomes per 1000 cells” value in the data set on neuronal cells [5] (gigasomes harvested from cell culture media (FIG. 8E)) is recorded as “approximately 4.5 per 1000 cells”; in the data set on neuronal cells [5] (plated live cells, Tau fibrils 50 nM 3 h, MG-132 0.1 μM 18-20 h (FIG. 8C)), “approximately 325 per 1000 cells”.

Values taken from patent US20240400986A1, “MEMBRANE BOUND COMPOSITIONS AND METHODS RELATING TO SAME” (FLAGSHIP PIONEERING INNOVATIONS VII, LLC, priority 2021, published 2024).
